According to ChEMBL document CHEMBL1156544, “Bioactive brominated metabolites from the red sea sponge Suberea mollis” (2008):
Calls of active or inactive are those of the source. The calls are words filed in the database; no cut-off is given here.

Tests used:
Staphylococcus aureus [1] = test: Antibacterial activity against Staphylococcus aureus ATCC 6538P assessed as inhibition zone diameter after 24 hrs by agar diffusion method; type: functional
Pseudomonas aeruginosa [2] = test: Antibacterial activity against Pseudomonas aeruginosa ATCC 9027 assessed as inhibition zone diameter after 24 hrs by agar diffusion method; type: functional
Klebsiella pneumoniae [3] = test: Antibacterial activity against Klebsiella pneumoniae ATCC 10032 assessed as inhibition zone diameter after 24 hrs by agar diffusion method; type: functional
Staphylococcus aureus [4] = test: Antibacterial activity against Staphylococcus aureus ATCC 6538P assessed as inhibition zone diameter at 30 ug/disk after 24 hrs by agar diffusion method; type: functional; conditions: read-out: IZ
Pseudomonas aeruginosa [5] = test: Antibacterial activity against Pseudomonas aeruginosa ATCC 9027 assessed as inhibition zone diameter at 30 ug/disk after 24 hrs by agar diffusion method; type: functional; conditions: ATCC 9027, 24 h, read-out: IZ
Klebsiella pneumoniae [6] = test: Antibacterial activity against Klebsiella pneumoniae ATCC 10032 assessed as inhibition zone diameter at 30 ug/disk after 24 hrs by agar diffusion method; type: functional; conditions: ATCC 10032, 24 h, read-out: IZ
[7] = system: Radical scavenging activity; test: Antioxidant activity assessed as DPPH radical scavenging activity at 6 ug; type: functional
Staphylococcus aureus [8] = test: Antibacterial activity against Staphylococcus aureus ATCC 6538P assessed as inhibition zone diameter at 15 ug/disk after 24 hrs by agar diffusion method; type: functional; conditions: read-out: IZ
Pseudomonas aeruginosa [9] = test: Antibacterial activity against Pseudomonas aeruginosa ATCC 9027 assessed as inhibition zone diameter at 15 ug/disk after 24 hrs by agar diffusion method; type: functional, organism-based
Klebsiella pneumoniae [10] = test: Antibacterial activity against Klebsiella pneumoniae ATCC 10032 assessed as inhibition zone diameter at 15 ug/disk after 24 hrs by agar diffusion method; type: functional, organism-based
Staphylococcus aureus [11] = test: Antibacterial activity against Staphylococcus aureus ATCC 6538P assessed as inhibition zone diameter at 5 ug/disk after 24 hrs by agar diffusion method; type: functional, organism-based
Pseudomonas aeruginosa [12] = test: microbe, parasite or virus in culture; conditions: ATCC 9027, 24 h, read-out: IZ
Description: Antibacterial activity against Pseudomonas aeruginosa ATCC 9027 assessed as inhibition zone diameter at 5 ug/disk after 24 hrs by agar diffusion method

Klebsiella pneumoniae [13] = test: microbe, parasite or virus in culture; conditions: ATCC 10032, 24 h, read-out: IZ
Description: Antibacterial activity against Klebsiella pneumoniae ATCC 10032 assessed as inhibition zone diameter at 5 ug/disk after 24 hrs by agar diffusion method

SMILES | inhibition zone (IZ) (Staphylococcus aureus [1]) | Activity (Pseudomonas aeruginosa [2]) | Activity (Klebsiella pneumoniae [3]) | other results
COC1=C(Br)[C@H](O)[C@@]2(C=C1Br)CC(C(=O)NCCCCCNC(=O)C1=NO[C@]3(C=C(Br)C(OC)=C(Br)[C@@H]3O)C1)=NO2 [HOMOAEROTHIONIN] | 3 mm | inactive | inactive | 
COC1=C(Br)[C@@H]2OC(=O)C[C@]2(O)C=C1Br | 5 mm | inactive | inactive | 
CCOC(=O)NCCCCNC(=O)C1=NO[C@]2(C=C(Br)C(OC)=C(Br)[C@@H]2O)C1 [SUBEREAMOLLINE A] | 3 mm | inactive | inactive | 
COC1=C(Br)[C@H](O)[C@](O)(CC#N)C=C1Br | 9 mm |  |  | inhibition zone (IZ) (Pseudomonas aeruginosa [2]): 11 mm; inhibition zone (IZ) (Klebsiella pneumoniae [3]): 7 mm
O=C(N[C@H](CO)[C@H](O)c1ccc([N+](=O)[O-])cc1)C(Cl)Cl [CHLORAMPHENICOL] |  |  |  | zone of inhibition at 30 µg/disc (Staphylococcus aureus [4]): 9 mm; zone of inhibition at 30 µg/disc (Pseudomonas aeruginosa [5]): 7 mm; zone of inhibition at 30 µg/disc (Klebsiella pneumoniae [6]): 10 mm
COC(=O)Cc1cc(Br)c(O)c(Br)c1O [SUBEREAPHENOL B] | 5 mm | inactive | inactive | Activity [7]: Active
CC[C@H]1OC(=O)[C@H](C)[C@@H](O[C@H]2C[C@@](C)(OC)[C@@H](O)[C@H](C)O2)[C@H](C)[C@@H](O[C@@H]2O[C@H](C)C[C@H](N(C)C)[C@H]2O)[C@](C)(O)C[C@@H](C)C(=O)[C@H](C)[C@@H](O)[C@]1(C)O [ERYTHROMYCIN] |  |  |  | zone of inhibition at 15 µg/disc (Staphylococcus aureus [8]): 8 mm; Activity (Pseudomonas aeruginosa [9]): inactive; Activity (Klebsiella pneumoniae [10]): inactive
O=C(O)c1cn(C2CC2)c2cc(N3CCNCC3)c(F)cc2c1=O [CIPROFLOXACIN] |  |  |  | Activity (Staphylococcus aureus [11]): inactive; zone of inhibition at 5 µg/disc (Pseudomonas aeruginosa [12]): 2 mm; zone of inhibition at 5 µg/disc (Klebsiella pneumoniae [13]): 8 mm
CCOC(=O)Cc1cc(Br)c(O)c(Br)c1O |  |  |  | Activity [7]: Active
COC1=C(Br)[C@H](O)[C@@]2(C=C1Br)CC(C(=O)NCCCOc1c(Br)cc(CCNC(=O)C3=NO[C@]4(C=C(Br)C(OC)=C(Br)[C@@H]4O)C3)cc1Br)=NO2 |  | inactive | inactive | Activity (Staphylococcus aureus [1]): inactive
COC1=C(Br)[C@H](O)[C@@]2(C=C1Br)CC(C(=O)NCCCCNC(=O)C1=NO[C@]3(C=C(Br)C(OC)=C(Br)[C@@H]3O)C1)=NO2 [AEROTHIONIN] | 5 mm | inactive |  | inhibition zone (IZ) (Klebsiella pneumoniae [3]): 3 mm
